Laboratory results reported in ChEMBL document CHEMBL1132471, “Vancomycin binding to low-affinity ligands: delineating a minimum set of interactions necessary for high-affinity binding” (J Med Chem, 1999).

assay: Affinity for Vancomycin (Exp II)

Affinity	Structure (SMILES)
300 M⁻¹	CC(=O)N[C@H](C)C(=O)O
30 M⁻¹	CC(=O)O
80 M⁻¹	C[C@@H](O)C(=O)O
80 M⁻¹	CC(=O)NCC(=O)O

assay: Affinity for Vancomycin (Exp I)

Affinity	Structure (SMILES)
40 M⁻¹	CC(=O)O[C@H](C)C(=O)O
15 M⁻¹	CC(=O)O
